Columns and labels:
[1] = 308.15 K, 101.33 kPa, Liquid; for speed of sound: Pulse-echo method
[2] = xn = mol fraction of the nth substance listed; settings: 308.15 K, 101 kPa, Liquid; for speed of sound: Pulse-echo method

CC(O)C(C)O (stereo not drawn) [2,3-butanediol]
[1]
Settings | mass density [kg/m3] | speed of sound [m/s] | viscosity [mPa·s]
– | 990.72 | 1456.6 | 51.38

CC(O)CCO (stereo not drawn) [1,3-butanediol] + O=C1CCCN1
[2]
Settings | excess molar volume [m3/mol] | speed of sound [m/s] | viscosity [mPa·s]
x2 = 0.0122 | 2e-09 | – | –
x2 = 0.0261 | – | 1498 | 51.57
x2 = 0.0368 | 8e-09 | – | –
x2 = 0.0526 | – | 1500.5 | 46.61
x2 = 0.055 | 2.3e-08 | – | –
x2 = 0.0755 | – | 1502.8 | 44.87
x2 = 0.0812 | 3.4e-08 | – | –
x2 = 0.0939 | 4.6e-08 | – | –
x2 = 0.1 | – | 1504.8 | 40.88
x2 = 0.1079 | 5.5e-08 | – | –
x2 = 0.1227 | 5.9e-08 | – | –
x2 = 0.1447 | 6.3e-08 | – | –
x2 = 0.1543 | – | 1509.2 | 36.15
x2 = 0.1594 | 6.7e-08 | – | –
x2 = 0.1843 | 8.2e-08 | – | –
x2 = 0.2041 | – | 1513.2 | 31.48
x2 = 0.2174 | 9.5e-08 | – | –
x2 = 0.2396 | 1.02e-07 | – | –
x2 = 0.2586 | 1.16e-07 | – | –
x2 = 0.2859 | 1.25e-07 | – | –
x2 = 0.3003 | – | 1521.1 | 26.19
x2 = 0.3054 | 1.31e-07 | – | –
x2 = 0.3436 | 1.38e-07 | – | –
x2 = 0.3606 | 1.42e-07 | – | –
x2 = 0.3817 | 1.46e-07 | – | –
x2 = 0.3932 | – | 1529.1 | 21.54
x2 = 0.4337 | 1.48e-07 | – | –
x2 = 0.4571 | 1.49e-07 | – | –
x2 = 0.4815 | 1.49e-07 | – | –
x2 = 0.4985 | – | 1539 | 17.82
x2 = 0.519 | 1.48e-07 | – | –
x2 = 0.5798 | 1.45e-07 | – | –
x2 = 0.5931 | 1.41e-07 | – | –
x2 = 0.5936 | 1.39e-07 | – | –
x2 = 0.6015 | 1.38e-07 | – | –
x2 = 0.603 | – | 1549 | 15.46
x2 = 0.6087 | 1.37e-07 | – | –
x2 = 0.6204 | 1.33e-07 | – | –
x2 = 0.6319 | 1.32e-07 | – | –
x2 = 0.6419 | 1.32e-07 | – | –
x2 = 0.6744 | 1.28e-07 | – | –
x2 = 0.6903 | 1.22e-07 | – | –
x2 = 0.6985 | – | 1559.4 | 13.17
x2 = 0.705 | 1.2e-07 | – | –
x2 = 0.7245 | 1.15e-07 | – | –
x2 = 0.7372 | 1.15e-07 | – | –
x2 = 0.7679 | 1.07e-07 | – | –
x2 = 0.7781 | 9.8e-08 | – | –
x2 = 0.7935 | – | 1570.9 | 11.85
x2 = 0.7976 | 9.2e-08 | – | –
x2 = 0.8132 | 8.3e-08 | – | –
x2 = 0.8358 | 7.3e-08 | – | –
x2 = 0.839 | – | 1576.8 | 10.81
x2 = 0.8994 | – | 1585.1 | 9.984
x2 = 0.9271 | – | 1589 | 9.739
x2 = 0.947 | – | 1592.3 | 9.44
x2 = 0.9774 | – | 1596.3 | 9.15

OCCCCO [1,4-butanediol]
[1]
Settings | mass density [kg/m3] | speed of sound [m/s] | viscosity [mPa·s]
– | 1003.95 | 1577.8 | 47.38

OCCCCO [1,4-butanediol] + O=C1CCCN1
[2]
Settings | excess molar volume [m3/mol] | speed of sound [m/s] | viscosity [mPa·s]
x2 = 0.0144 | -1e-09 | – | –
x2 = 0.0265 | – | 1579.3 | 44.47
x2 = 0.0335 | -2e-09 | – | –
x2 = 0.0524 | – | 1580.6 | 42.37
x2 = 0.0631 | -5e-09 | – | –
x2 = 0.0746 | – | 1581.5 | 40.73
x2 = 0.0859 | -7e-09 | – | –
x2 = 0.099 | – | 1582.3 | 39.16
x2 = 0.1034 | -1.2e-08 | – | –
x2 = 0.1244 | -1.6e-08 | – | –
x2 = 0.133 | -1.8e-08 | – | –
x2 = 0.1495 | -2.2e-08 | – | –
x2 = 0.1515 | – | 1583.7 | 35.63
x2 = 0.1707 | -2.4e-08 | – | –
x2 = 0.1835 | -2.6e-08 | – | –
x2 = 0.1968 | -2.7e-08 | – | –
x2 = 0.197 | – | 1585.2 | 32.87
x2 = 0.2205 | -2.8e-08 | – | –
x2 = 0.2428 | -2.9e-08 | – | –
x2 = 0.2649 | -2.7e-08 | – | –
x2 = 0.2863 | -2.6e-08 | – | –
x2 = 0.2914 | – | 1587.8 | 27.93
x2 = 0.3121 | -2.6e-08 | – | –
x2 = 0.3339 | -2.2e-08 | – | –
x2 = 0.3582 | -2e-08 | – | –
x2 = 0.384 | -1.5e-08 | – | –
x2 = 0.3911 | – | 1589.6 | 23.57
x2 = 0.4202 | -1.1e-08 | – | –
x2 = 0.4438 | -9e-09 | – | –
x2 = 0.4533 | – | 1590.3 | –
x2 = 0.4656 | -7e-09 | – | –
x2 = 0.4771 | -4e-09 | – | –
x2 = 0.4954 | -2e-09 | – | –
x2 = 0.5159 | -2e-09 | – | –
x2 = 0.5237 | – | 1591.3 | 19.22
x2 = 0.527 | 0 | – | –
x2 = 0.5409 | 1e-09 | – | –
x2 = 0.5644 | 4e-09 | – | –
x2 = 0.5753 | 6e-09 | – | –
x2 = 0.5886 | 7e-09 | – | –
x2 = 0.5997 | – | 1592.6 | 17.1
x2 = 0.6032 | 8e-09 | – | –
x2 = 0.6155 | 1e-08 | – | –
x2 = 0.6273 | 1.3e-08 | – | –
x2 = 0.6452 | 2e-08 | – | –
x2 = 0.6685 | 2.2e-08 | – | –
x2 = 0.6788 | 2.3e-08 | – | –
x2 = 0.6904 | – | 1593.7 | 14.81
x2 = 0.6925 | 2.4e-08 | – | –
x2 = 0.7159 | 2.5e-08 | – | –
x2 = 0.7338 | 2.6e-08 | – | –
x2 = 0.7494 | 2.7e-08 | – | –
x2 = 0.7878 | – | 1595 | 12.92
x2 = 0.8877 | – | 1596.8 | 10.74
x2 = 0.9305 | – | 1598 | 10.14
x2 = 0.9481 | – | 1598.5 | 9.772
x2 = 0.9741 | – | 1599.2 | 9.275

Source: the NIST ThermoML archive (doi:10.1016/j.jct.2004.11.020)
